Assay results reported in paper PMC5896380, “Selective imaging of cathepsin L in breast cancer by fluorescent activity-based probes” (Chemical Science, 2018).
Non-standard residues stand in square brackets, D forms with d. *: point of attachment. Phe(F5) = N[C@@H](Cc1c(F)c(F)c(F)c(F)c1F)C(=O)O; ACC = NC(=O)Cc1cc(=O)oc2cc(N*)ccc12

Columns and labels:
[1] = system: cathepsins L and B in MDA-MB-231 cells; assay: Cathepsin labeling in MDA-MB-231 cells by SDS-PAGE and western blotting; format: cell-based, human; settings: 25 μM, 2 hours prior to probe addition, MDA-MB-231 cells
Method: Low passage MDA-MB-231 cells were seeded on 12-well plates (200 000 cells per well per 1 mL of medium) and cultured in Dulbecco’s Modification of Eagle’s Medium (DMEM) supplemented with 10% fetal bovine serum, 2 mM of L-glutamine, 100 units per mL penicillin and 100 μg mL^–1 streptomycin. […] To control for non-specific binding, the cells were preincubated with E64d (25 μM) for 2 hours prior to probe addition. At various time points, the medium was aspirated and the cells were gently washed twice with 1 mL of Dulbecco’s Phosphate-Buffered Saline (DPBS) and then trypsinized, harvested and centrifuged for 10 min (500 × g). The supernatants were removed by aspiration and the pellets washed with 1 mL of DPBS and centrifuged (5 min, 500 × g). The supernatants were again removed and the pellets solubilized in 100 μL 1× SDS/DTT and then boiled for 5 min. Each sample was then cooled to room temperature and sonicated (Branson Sonifier 250, duty cycle: 50, output control: 5, cycles: 5) and then 30 μL was loaded on 4–12% Bis-Tris Plus gels and run for 30 min at 200 V with a SDS-PAGE Standards/Broad Range ladder. Proteins were transferred to a 0.2 μm nitrocellulose membrane for 1 hour at 10 V and then Ponceau staining was used to verify equal loading. Membranes were blocked with 2.5% BSA in Tris-buffered saline/0.1% v/v Tween 20 (TBS-T) for 1 hour at room temperature. Cathepsins L and B were detected by primary goat anti-hCathepsin L (R&D, AF952, 0.2 mg mL^–1, 1 : 2000) and goat anti-hCathepsin B (R&D, AF953, 0.2 mg mL^–1, 1 : 1000) antibodies, respectively, followed by incubation with a secondary antibody (IRDye® 800CW, LI-COR, donkey anti-goat, 1 : 10 000). The membranes were incubated with primary antibodies for 2 hours, and with (fluorescent) secondary antibodies for 30 min (both in TBS-T at room temperature). The fluorescence was read at 700 nm (Cyanine5; excitation 685 nm) and 800 nm (secondary antibody; excitation 785 nm) using an Odyssey fluorescence imaging system (LI-COR). The images were analyzed using Image Studio software.

cathepsin L [2] = target: T1, cathepsin L (Homo sapiens, UniProt P07711); assay: Kinetic parameters of ACC substrates with cathepsin L; format: biochemical; settings: pH 5.5, 37 °C, cathepsin L 0.1–0.5 nM, SD below 15%
T1 construct: made in house
Method: (§1) All kinetic experiments were performed using fMax (Molecular Devices) and CLARIOStar (BMG LABTECH) spectrofluorimeters operating in kinetic mode using 96-well plates. ACC-labeled substrates were screened using 355 nm and 460 nm wavelengths (excitation and emission, respectively). […] The buffer was prepared at room temperature and the enzyme kinetic studies were performed at 37 °C.
(§2) Classic substrate velocity plots were analyzed according to Michaelis–Menten kinetics and a detailed protocol for the determination of kinetic parameters for ACC-tagged substrates is found elsewhere.[56] […] Experiments were repeated at least three times and results are presented as an average. The SDs were below 15%.

cathepsin B [3] = target: T2, cathepsin B (Homo sapiens, UniProt P07858); assay: Substrate selectivity screening, rate of hydrolysis, cathepsin B; format: biochemical; settings: Table S4; substrate 100µM, cathepsin 5nM; pH 5.5, 37 °C; average of at least three screenings
T2 construct: made in house
Method: as §1
(§3) All potentially selective cathepsin L substrates were tested for their selectivity against a panel of five different cathepsins, containing cathepsins L, V, S, K and […], at concentrations of 2 μM and 100 μM. To obtain reliable results the concentration of each cathepsin was 5 nM. Substrate hydrolysis was carried out for 10 min (for cathepsin L) and for up to 60 min (for other cathepsins). Hydrolysis rates (RFU s^–1) are presented as average values from at least three screenings.

cathepsin K [4] = target: T3, cathepsin K (Homo sapiens, UniProt P43235); assay: Substrate selectivity screening, rate of hydrolysis, cathepsin K; format: biochemical; settings: Table S4; substrate 100µM, cathepsin 5nM; pH 5.5, 37 °C; average of at least three screenings
T3 construct: made in house
T3 sequence (P43235 115-329): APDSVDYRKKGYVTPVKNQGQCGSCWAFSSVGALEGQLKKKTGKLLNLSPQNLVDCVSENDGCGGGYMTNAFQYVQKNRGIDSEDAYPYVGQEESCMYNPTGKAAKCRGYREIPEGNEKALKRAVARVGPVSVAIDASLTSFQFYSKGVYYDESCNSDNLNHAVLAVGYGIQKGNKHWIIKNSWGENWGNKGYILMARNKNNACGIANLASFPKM
Method: as §1, §3

cathepsin L [5] = target: T1, cathepsin L; assay: Substrate selectivity screening, rate of hydrolysis, cathepsin L; format: biochemical; settings: Table S4; substrate 100µM, cathepsin 5nM; pH 5.5, 37 °C; average of at least three screenings
Method: as §1, §3

cathepsin S [6] = target: T4, cathepsin S (Homo sapiens, UniProt P25774); assay: Substrate selectivity screening, rate of hydrolysis, cathepsin S; format: biochemical; settings: Table S4; substrate 100µM, cathepsin 5nM; pH 5.5, 37 °C; average of at least three screenings
T4 construct: made in house
Method: as §1, §3

cathepsin V [7] = target: T5, cathepsin V (Homo sapiens, UniProt O60911); assay: Substrate selectivity screening, rate of hydrolysis, cathepsin V; format: biochemical; settings: Table S4; substrate 100µM, cathepsin 5nM; pH 5.5, 37 °C; average of at least three screenings
T5 construct: made in house
Method: as §1, §3

cathepsin V [8] = target: T5, cathepsin V; assay: Kinetic parameters of ACC substrates with cathepsin V; format: biochemical; settings: Fig. 5B; pH 5.5, 37 °C; cathepsin V 10–20 nM; triplicate, SD below 15%
Method: as §1, §2

cathepsin B [9] = target: T2, cathepsin B; assay: Kinetic parameters of ACC substrates with cathepsin B; format: biochemical; settings: Fig. 5B; pH 5.5, 37 °C; cathepsin B 4–15 nM; triplicate, SD below 15%
Method: as §1, §2

cathepsin K [10] = target: T3, cathepsin K; assay: Kinetic parameters of ACC substrates with cathepsin K; format: biochemical; settings: Fig. 5B; pH 5.5, 37 °C; cathepsin K 5–20 nM; triplicate, SD below 15%
Method: as §1, §2

cathepsin S [11] = target: T4, cathepsin S; assay: Kinetic parameters of ACC substrates with cathepsin S; format: biochemical; settings: Fig. 5B; pH 5.5, 37 °C; cathepsin S 5–20 nM; triplicate, SD below 15%
Method: as §1, §2

cathepsin L [12] = target: T1, cathepsin L; assay: kobs/I of activity-based probes, cathepsin L; format: biochemical; settings: Fig. 6A; pseudo-first order, probe at least 5-fold excess over cathepsin, 100 μM ACC substrate; pH 5.5, 37 °C; triplicate, SD below 20%
Method: as §1
(§4) For the kinetic studies, five recombinant human cathepsins (B, L, V, K and S) were expressed and purified and active site titrated using an E64 inhibitor. The kobs/I parameter was measured under pseudo-first order kinetic conditions, as described.[40] The cathepsin of interest was mixed with various concentrations of probe (at least 5-fold excess over cathepsin) and 100 μM ACC-fluorescence substrate. The experiments were repeated at least three times, and the results are presented as an average. The SDs were below 20%.

cathepsin V [13] = target: T5, cathepsin V; assay: kobs/I of activity-based probes, cathepsin V; format: biochemical; settings: Fig. 6A; pseudo-first order, probe at least 5-fold excess over cathepsin, 100 μM ACC substrate; pH 5.5, 37 °C; triplicate, SD below 20%
Method: as §1, §4

cathepsin B [14] = target: T2, cathepsin B; assay: kobs/I of activity-based probes, cathepsin B; format: biochemical; settings: Fig. 6A; pseudo-first order, probe at least 5-fold excess over cathepsin, 100 μM ACC substrate; pH 5.5, 37 °C; triplicate, SD below 20%
Method: as §1, §4

cathepsin S [15] = target: T4, cathepsin S; assay: kobs/I of activity-based probes, cathepsin S; format: biochemical; settings: Fig. 6A; pseudo-first order, probe at least 5-fold excess over cathepsin, 100 μM ACC substrate; pH 5.5, 37 °C; triplicate, SD below 20%
Method: as §1, §4

cathepsin K [16] = target: T3, cathepsin K; assay: kobs/I of activity-based probes, cathepsin K; format: biochemical; settings: Fig. 6A; pseudo-first order, probe at least 5-fold excess over cathepsin, 100 μM ACC substrate; pH 5.5, 37 °C; triplicate, SD below 20%
Method: as §1, §4

[17] = system: HEK293T cathepsin L-transfected cells; settings: probes 0–10 μM incubated with cells up to 24 hours; streptavidin–HRP blot
Method: To evaluate probe uptake, 250 000 HEK293T cells transfected with pcDNA3:ppCatL were seeded into 6-well plates and incubated with various concentrations of bMP-cL1 and bMP-cL2 (0–10 μM) for up to 24 hours. In control experiments the cells were preincubated with 25 μM E-64d, a pan-cathepsin inhibitor, for 2 hours prior to probe addition. After incubation samples were collected and immunoblotted. Biotinylated proteins were detected as described above.

[18] = system: HEK293T cells overexpressing cathepsin L; settings: probes 5 μM, 18 hours; streptavidin magnetic beads; immunoblotting
Method: To evaluate MP-cL1 and MP-cL2 selectivity, 250 000 HEK293T cells overexpressing cathepsin L were plated and treated with probes and inhibitors as described above. Streptavidin-bound magnetic beads were prepared in separate tubes according to the manufacturer’s guidelines (Pierce™ Streptavidin Magnetic Beads, Thermo Scientific). Briefly, 50 μL beads were washed with sample lysis buffer and then the lysates were added. Tubes were incubated at room temperature on a rocking platform for 2 hours. The beads were then extensively washed with 50 mM Tris-buffered saline containing 0.1% Tween-20 and collected between each washing step. The beads were then re-suspended in 1× SDS loading buffer at a final volume of 100 μL, and the samples were placed at 95 °C and prepared for immunoblotting as described above to detect biotinylated proteins in the lysates, as well as in the unbound and eluted fractions. To confirm cathepsin L/B selectivity, we seeded HEK293T cells as described above. The probes were added at a 5 μM final concentration and incubated for 18 hours before the cells were harvested and lysed to isolate biotinylated proteins using streptavidin magnetic beads, as described above. The lysates plus the unbound and eluting fractions were then evaluated to detect cathepsin B (in-house mouse polyclonal Ab;[51] dilution 1 : 1000) and cathepsin L (Abcam ab62710).

T5 sequence (O60911 114-334): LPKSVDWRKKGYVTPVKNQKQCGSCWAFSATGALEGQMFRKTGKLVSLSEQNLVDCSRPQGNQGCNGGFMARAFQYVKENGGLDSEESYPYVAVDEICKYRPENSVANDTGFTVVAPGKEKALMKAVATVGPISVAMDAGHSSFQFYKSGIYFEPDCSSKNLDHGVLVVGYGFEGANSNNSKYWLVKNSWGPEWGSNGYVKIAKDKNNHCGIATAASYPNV
T1 sequence (P07711 114-333): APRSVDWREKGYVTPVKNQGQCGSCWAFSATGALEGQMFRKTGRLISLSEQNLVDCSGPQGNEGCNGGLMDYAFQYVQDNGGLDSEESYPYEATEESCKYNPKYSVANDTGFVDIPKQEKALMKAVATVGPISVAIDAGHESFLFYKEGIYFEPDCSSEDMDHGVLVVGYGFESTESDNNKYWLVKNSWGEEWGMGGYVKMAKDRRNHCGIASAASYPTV
T4 sequence (P25774 115-331): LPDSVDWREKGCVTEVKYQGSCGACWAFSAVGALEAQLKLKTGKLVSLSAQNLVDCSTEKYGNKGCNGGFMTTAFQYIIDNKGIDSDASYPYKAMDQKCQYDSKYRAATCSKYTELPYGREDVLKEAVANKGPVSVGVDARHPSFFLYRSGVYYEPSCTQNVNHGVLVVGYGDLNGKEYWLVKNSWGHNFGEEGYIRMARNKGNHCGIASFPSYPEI

CCOC(=O)[C@H]1O[C@@H]1C(=O)N[C@@H](CC(C)C)C(=O)NCCC(C)C [E64d, reference compound]
effect of pre-incubation on cathepsin labeling by probe [1]: blocked all cysteine cathepsin activity

Ac-HRFR-{ACC} (SMILES CC(=O)N[C@@H](Cc1c[nH]cn1)C(=O)N[C@@H](CCCNC(=N)N)C(=O)N[C@@H](Cc1ccccc1)C(=O)N[C@@H](CCCNC(=N)N)C(=O)Nc1ccc2c(CC(N)=O)cc(=O)oc2c1) [reference compound]
kcat/KM (cathepsin L [2]; Fig. 4B, ACC substrates, 100 mM sodium acetate, 100 mM NaCl, 10 mM DTT, 1 mM EDTA, average of at least three): 13,050,000 M^-1s^-1 | Relative substrate activity (rate of hydrolysis), cathepsin B (cathepsin B [3]): 272 RFU/s | Relative substrate activity (rate of hydrolysis), cathepsin K (cathepsin K [4]): 24.5 RFU/s | Relative substrate activity (rate of hydrolysis), cathepsin L (cathepsin L [5]): 875 RFU/s | Relative substrate activity (rate of hydrolysis), cathepsin S (cathepsin S [6]): 40.3 RFU/s | Relative substrate activity (rate of hydrolysis), cathepsin V (cathepsin V [7]): 224 RFU/s

Ac-H[dV][Phe(F5)]R-{ACC} (SMILES CC(=O)N[C@@H](Cc1c[nH]cn1)C(=O)N[C@@H](C(=O)N[C@@H](Cc1c(F)c(F)c(F)c(F)c1F)C(=O)N[C@@H](CCCNC(=N)N)C(=O)Nc1ccc2c(CC(N)=O)cc(=O)oc2c1)C(C)C)
kcat/KM Cath-L (cathepsin L [2]; Fig. 5B, triplicate): 747,400 M^-1s^-1 | kcat/KM Cath-V (cathepsin V [8]): 539 M⁻¹ s⁻¹ | kcat/KM Cath-B (cathepsin B [9]): 252 M⁻¹ s⁻¹ | kcat/KM Cath-K (cathepsin K [10]): < 10 M⁻¹ s⁻¹ | kcat/KM Cath-S (cathepsin S [11]): < 10 M⁻¹ s⁻¹ | Relative substrate activity (rate of hydrolysis), cathepsin B (cathepsin B [3]): 0.7 RFU/s | Relative substrate activity (rate of hydrolysis), cathepsin K (cathepsin K [4]): 1.1 RFU/s | Relative substrate activity (rate of hydrolysis), cathepsin L (cathepsin L [5]): 706 RFU/s | Relative substrate activity (rate of hydrolysis), cathepsin S (cathepsin S [6]): 0.0 RFU/s | Relative substrate activity (rate of hydrolysis), cathepsin V (cathepsin V [7]): 4.4 RFU/s

BODIPYFL-6-ahx-Ala-Arg-Leu-Arg-AOMK [MP-pc2, BDPFL-6-ahx-Ala-Arg-Leu-Arg-AOMK, BODIPY-FL-labeled pan-cathepsin probe]
kobs/I Cath-L (cathepsin L [12]): 8,200 M^-1s^-1 | kobs/I Cath-V (cathepsin V [13]): 9,800 M^-1s^-1 | kobs/I Cath-B (cathepsin B [14]): 23,200 M^-1s^-1 | kobs/I Cath-S (cathepsin S [15]): 18,500 M^-1s^-1 | kobs/I Cath-K (cathepsin K [16]): 350 M⁻¹ s⁻¹

Cy3-6-ahx-Ala-Arg-Leu-Arg-AOMK [MP-pc3, Cy3-labeled pan-cathepsin probe]
kobs/I Cath-L (cathepsin L [12]): 16,900 M^-1s^-1 | kobs/I Cath-V (cathepsin V [13]): 6,700 M^-1s^-1 | kobs/I Cath-B (cathepsin B [14]): 75,400 M^-1s^-1 | kobs/I Cath-S (cathepsin S [15]): 69,000 M^-1s^-1 | kobs/I Cath-K (cathepsin K [16]): 1,350 M^-1s^-1

biotin-6-ahx-His-DThr-Phe(F5)-Arg-AOMK [MP-cL1] [listing 1 of 2 here]
kobs/I Cath-L (cathepsin L [12]): 26,600 M^-1s^-1 | kobs/I Cath-V (cathepsin V [13]): 780 M⁻¹ s⁻¹ | kobs/I Cath-B (cathepsin B [14]): 1,900 M^-1s^-1 | kobs/I Cath-S (cathepsin S [15]): < 100 M⁻¹ s⁻¹ | kobs/I Cath-K (cathepsin K [16]): < 100 M⁻¹ s⁻¹

biotin-6-ahx-His-DThr-Phe(F5)-Arg-AOMK [MP-cL1] [listing 2 of 2 here]
lowest probe concentration giving a signal in the cathepsin MW range [17]: 100 nM | cross-reactivity with cathepsin B in pulldown eluting fractions [18]: only minor cross-reactivity

biotin-6-ahx-His-DThr-Phe(F5)-Lys-AOMK [MP-cL2] [listing 1 of 2 here]
kobs/I Cath-L (cathepsin L [12]): 10,500 M^-1s^-1 | kobs/I Cath-V (cathepsin V [13]): 360 M⁻¹ s⁻¹ | kobs/I Cath-B (cathepsin B [14]): 1,250 M^-1s^-1 | kobs/I Cath-S (cathepsin S [15]): < 100 M⁻¹ s⁻¹ | kobs/I Cath-K (cathepsin K [16]): < 100 M⁻¹ s⁻¹

biotin-6-ahx-His-DThr-Phe(F5)-Lys-AOMK [MP-cL2] [listing 2 of 2 here]
lowest probe concentration giving a signal in the cathepsin MW range [17]: 100 nM | cross-reactivity with cathepsin B in pulldown eluting fractions [18]: only minor cross-reactivity
